Experimental data: the supplement of paper PMC10307832

Tests used:
Assay in all cases: relative viability (nuclei count vs DMSO), 5 days (fraction); higher = more cells survive
[1] = compound: CC(O)(CS(=O)(=O)c1ccc(F)cc1)C(=O)Nc1ccc(C#N)c(C(F)(F)F)c1 [Bicalutamide] + CCNC(=O)c1noc(-c2cc(C(C)C)c(O)cc2O)c1-c1ccc(CN2CCOCC2)cc1 [Luminespib] (partner 0.01 µM)
Procedure, shortened: (§1)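 The day after seeding in 1536-well plates, lung cancer cell lines were treated by pin tool with a single drug, or with a fixed anchor-drug dose together with five library-drug doses (not always all listed) in √10 steps. After 5 days, a combined fix-and-stain solution (final 0.05% Triton X-100, 1% formaldehyde, 1 ug/ml Hoechst) was added. Nuclei counted on 4× images gave relative viability as treated counts over vehicle counts, reported as the median of duplicate plates.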

[2] = compound: CC(O)(CS(=O)(=O)c1ccc(F)cc1)C(=O)Nc1ccc(C#N)c(C(F)(F)F)c1 [Bicalutamide] + Cc1cc(Nc2cc(N3CCN(C)CC3)nc(Sc3ccc(NC(=O)C4CC4)cc3)n2)n[nH]1 [Tozasertib] (partner 0.1 µM)
Procedure, shortened: as §1

[3] = compound: C(C(=O)C(=O)O)Br [Bromopyruvate] + O=C(CCCCCCC(=O)Nc1ccccc1)NO [Vorinostat] (partner 1 µM)
Procedure, shortened: as §1

Bicalutamide + Olaparib = compound: CC(O)(CS(=O)(=O)c1ccc(F)cc1)C(=O)Nc1ccc(C#N)c(C(F)(F)F)c1 [Bicalutamide] + O=C(c1cc(Cc2n[nH]c(=O)c3ccccc23)ccc1F)N1CCN(C(=O)C2CC2)CC1 [Olaparib] (partner 8 µM)
Procedure, shortened: as §1

Row | Cell Line | relative viability ([1]; first compound 0.08 µM) | relative viability ([1]; first compound 0.253 µM) | relative viability ([1]; first compound 0.8 µM) | relative viability ([1]; first compound 2.53 µM) | relative viability ([2]; first compound 0.08 µM) | relative viability ([2]; first compound 0.253 µM) | relative viability ([2]; first compound 0.8 µM) | relative viability ([2]; first compound 2.53 µM) | relative viability ([3]; first compound 1 µM) | relative viability ([3]; first compound 3.162 µM) | relative viability ([3]; first compound 10 µM) | relative viability ([3]; first compound 31.62 µM) | relative viability ([3]; first compound 100 µM) | relative viability (Bicalutamide + Olaparib; first compound 0.08 µM) | relative viability (Bicalutamide + Olaparib; first compound 0.253 µM) | relative viability (Bicalutamide + Olaparib; first compound 0.8 µM) | relative viability (Bicalutamide + Olaparib; first compound 2.53 µM)
1 | NCI-H838 | 0.282 | 0.226 | 0.331 | 0.309 | 0.274 | 0.279 | 0.289 | 0.23 | 0.7 | 0.684 | 0.652 | 0.631 | 0.607 | 0.777 | 0.778 | 0.733 | 0.522
2 | NCI-H1355 | 0.797 | 0.694 | 0.787 | 0.818 | 0.613 | 0.499 | 0.658 | 0.462 | 0.668 | 0.641 | 0.646 | 0.607 | 0.606 | 0.711 | 0.696 | 0.848 | 0.668
3 | HOP-62 | 0.917 | 1.01 | 1.09 | 0.885 | 0.419 | 0.402 | 0.425 | 0.34 | 0.716 | 0.579 | 0.569 | 0.534 | 0.428 | 0.736 | 0.38 | 0.388 | 0.349
4 | NCI-H2087 | 0.157 | 0.153 | 0.168 | 0.259 | 0.234 | 0.226 | 0.262 | 0.219 | 0.814 | 0.551 | 0.751 | 0.528 | 0.375 | 0.527 | 0.51 | 0.75 | 0.572
